Measurements from patent US6472435B1, “Anti-tumor agents” (Astrazeneca AB, priority 1998, dated 2002).

Tests used:
[1] = test system: T18 murine breast tumours; test: Test (d): in vivo growth delay of T18 murine breast tumours in Balb/c mice; settings: single bolus dose of 20 mg/kg intraperitoneally
Text: (d) An in vivo assay in a group of Balb/c mice which determines the ability of a test compound to delay the growth of T18 murine breast tumours. The detailed methodology was as follows:
T18 murine breast tumour tissue was routinely maintained by animal to animal passage. To prepare a batch of tumours for an experiment, tumour tissue was removed from several donor Balb/c mice and placed in saline. Outer tissue was removed and healthy looking regions of tumour were cut into approximately 1 mm^3 pieces and implanted subcutaneously by trocar into the left flanks of anaesthetised female Balb/c mice. After 2-3 weeks, most of the implants had grown to approximately 8 mm in diameter. The animals were placed randomly into groups of 6-7, rejecting any with very large, or small, tumours. Each test compound was dissolved in DMSO and diluted with Cremophor EL followed by saline, to give a 1:1:3 mixture of DMSO, Cremophor EL and saline. Each test compound was administered by the intraperitoneal route as a single bolus dose (0.1 ml per 10 g body weight of each animal). Control animals received vehicle alone. All mice were weighed daily and the dimensions (length and width) of each tumour were measured every 2-3 days using vernier calipers. […] Growth curves were constructed and the effect of treatment was assessed using a growth delay endpoint.

[2] = test system: spheroidal aggregates of EMT6 murine breast cancer cells; test: Test (c): growth inhibition of spheroidal aggregates of EMT6 murine breast cancer cells; assay type: cell-based; settings: Mus musculus, 2 hours treatment, stasis of spheroid growth over 2-3 weeks, read-out: stasis ED50
Description: (c) An in vitro assay which determines the ability of a test compound to inhibit the growth in an oxygenated culture medium of spheroidal aggregates (˜400 microns in diameter) of EMT6 murine breast cancer cells. As the oxygen diffusion distance through tissue is approximately 120-150 microns, such spheroids have a chronically hypoxic central population of cells and a well oxygenated outer layer of cells. The multicellular spheroids were treated with test compounds for 2 hours as a well oxygenated suspension culture. The spheroids were subsequently washed free of test compound and selected spheroids were transferred to static culture so that the effect of treatment on volume growth could be measured. […]
EMT6 murine breast cells (obtained from P. R. Twentyman, MRC Oncology and Radiotherapeutics Unit, Cambridge, UK) were harvested from exponentially growing monolayer cultures and approximately 1×10^6 cells were used to inoculate a 500 ml spinner culture vessel containing Eagles minimal essential medium (200 ml; supplemented with 10% foetal calf serum, glutamate, non-essential amino acids, penicillin and streptomycin). […] The area of each spheroid was measured using an image analyser and the 24-well plates were transferred to a CO2 incubator at 37° C. The spheroids were then re-measured every 2-3 days for up to 21 days, with fresh culture medium (250 μl) being added to each well every 3 days. […]

## CCCC1=C(C(C)(C)CC(=O)N(C)c2ccc(N(CCCl)CCCl)cc2)C(=O)C=C(C)C1=O [Example 1, N-{4-[bis(2-chloroethyl)amino]phenyl}-3-(5-methyl-3-propyl-1,4-benzoquinon-2-yl)-3-methyl-N-methylbutyramide]
[1]
  growth delay: approximately 9 days
[2]
  EC50: ~4 µM
